Laboratory results published in patent US20140007502A1, “METHODS AND COMPOSITIONS FOR INCREASED PLANT YIELD” (priority 2011, published 2014).

What was measured:
Format in all cases: in vivo
[1] = tested on: maize hybrid COOLER (NK Seeds); experiment: Maize field trial yield, Valais, Switzerland (Example 2); settings: treatment at BBCH 14, 188 days
Text: (§1) Plots of suitable size in Valais, Switzerland were planted with maize hybrid COOLER™ (NK Seeds) at a conventional amount of seeds per hectare (in this example, 99,000) and at an increased density amount of seeds per hectare (in this example, 125,000).
(§2) Each density area was divided into four separate treatments—an untreated control, treatment with trinexapac ethyl (0.6 l/Ha of MODDUS™ 250EC which has 250 g trinexapac ethyl per liter) at BBCH 14, treatment with azoyxstrobin (1 l/Ha of a formulated product having 141.4 g azoxystrobin per liter in the form of QUILT® (Syngenta Crop Protection AG) which also contains 122.4 g propiconazole per liter) at BBCH 14, and treatment with trinexapac ethyl (0.6 l/Ha of 250 g/l product) and azoxystrobin (1 l/Ha of 141.4 g/l product) at BBCH 14.
(§3) Best practices were used consistently across the test plots with regard to field conditions such as fertilisation and irrigation and all other measures like weed and insect control. There was no fungal disease pressure. After a growing season of 188 days (29 Apr. 2011 to 3 Nov. 2011), each plot was harvested using a standard harvester. After shelling, the kernels were weighed at 14% moisture and the calculations extrapolated to a ton per hectare yield.

[2] = tested on: maize variety Terada (NK Seeds); experiment: Maize field trial yield, Oise, France (Example 4); settings: treatment at BBCH 14, 182 days
Text: as §1, §2, §3
Plots were prepared and treated according to the procedure described in Example 2. The differences were that the location was Oise, France and the variety was Terada (NK Seeds). The growing season was 182 days (14 Apr. 2011 to 13 Oct. 2011).

[3] = tested on: maize variety DeliTop (NK Seeds); experiment: Maize field trial yield, Niedersachsen, Germany (Example 6); settings: treatment at BBCH 14, 184 days
Text: as §1, §2, §3
Plots were prepared and treated according to the procedure described in Example 2. The differences were that the location was Niedersachsen, Germany and the variety was DeliTop (NK Seeds). The growing season was 184 days (1 May 2011 to 1 Nov. 2011).

[4] = tested on: maize variety Famoso (NK Seeds); experiment: Maize field trial yield, Milano, Italy, 158 days (Example 5); settings: treatment at BBCH 14
Text: as §1, §2, §3
Plots were prepared and treated according to the procedure described in Example 2. The differences were that the location was Milano, Italy and the variety was Famoso (NK Seeds). The growing season was 158 days (15 Apr. 2011 to 20 Sep. 2011).

[5] = tested on: maize variety Famoso (NK Seeds); experiment: Maize field trial yield, Milano, Italy, 163 days (Example 3); settings: treatment at BBCH 14
Text: as §1, §2, §3
Plots were prepared and treated according to the procedure described in Example 2. The differences were that the location was Milano, Italy and the variety was Famoso (NK Seeds). The growing season was 163 days (18 Apr. 2011 to 28 Sep. 2011).

[6] = tested on: maize hybrid (Famoso, NK Seeds); experiment: Maize field plots, kernel yield at conventional and increased plant density (Example 1); settings: kernels at 14% moisture
Text: Plots measuring 25×40 meters were planted with a common maize hybrid (Famoso, NK Seeds). Eight plots were planted according to density strategies considered optimum prior to the disclosure of the present invention: rows were spaced 75 cm apart, allowing for 16 rows per plot which had 19 cm between plants. Another eight plots were planted with maize at increased density: spacing between rows was 45 cm, giving 24 rows per plot with 22 cm between plants. Thus the density was 7 plants/m^2 for conventional density and 10 plants/m^2 for increased density.
In the 8 plots of conventional density two were untreated controls. Three were treated with a foliar application at stage BBCH 14-15; one with trinexapac ethyl, one with azoxystrobin, and one with a mixture of trinexapac and azoyxstrobin. The remaining three were treated with a foliar application at stage BBCH 31-32; one with trinexapac ethyl, one with azoxystrobin, and one with a mixture of trinexapac and azoyxstrobin. The 8 plots planted at increased density were treated at the same stages and with the same agents as for the conventional density plots. Best practices were used consistently across the test plots with regard to field conditions such as fertilisation and irrigation and all other measures like weed and insect control.
At maturity, each plot was harvested using a standard harvester. After shelling, the kernels were weighed at 14% moisture and the calculations extrapolated to a ton per hectare yield.

[7] = plant density 7 plants/m^2, foliar application at BBCH 14-15
[8] = plant density 7 plants/m^2, foliar application at BBCH 31-32
[9] = plant density 10 plants/m^2, foliar application at BBCH 14-15
[10] = plant density 10 plants/m^2, foliar application at BBCH 31-32

| Compound | Yield ([1]; 99,000 seeds per hectare) | Yield ([1]; 125,000 seeds per hectare) | Yield ([2]; 70,000 seeds per hectare) | Yield ([2]; 100,000 seeds per hectare) | Yield ([3]; 72,000 seeds per hectare) | Yield ([3]; 111,000 seeds per hectare) | Yield ([4]; 74,000 seeds per hectare) | Yield ([4]; 94,000 seeds per hectare) | Yield ([5]; 73,000 seeds per hectare) | Yield ([5]; 94,000 seeds per hectare) | Yield [6, 7] | Yield [6, 8] | Yield [6, 9] | Yield [6, 10] |
| --- | --- | --- | --- | --- | --- | --- | --- | --- | --- | --- | --- | --- | --- | --- |
| CCOC(=O)C1CC(=O)C(=C(O)C2CC2)C(=O)C1 (stereo not shown) [Trinexapac Ethyl, trinexapac ethyl] | 14.0 tons/ha | 18.6 tons/ha | 10.5 tons/ha | 14.6 tons/ha | 11.4 tons/ha | 11.0 tons/ha | 13.7 tons/ha | 14.7 tons/ha | 11.3 tons/ha | 12.1 tons/ha | 16.82 tons/ha | 16.70 tons/ha | 19.85 tons/ha | 19.41 tons/ha |
| CO/C=C(/C(=O)OC)c1ccccc1Oc1cc(Oc2ccccc2C#N)ncn1 [Azoxystrobin, azoxystrobin] | 14.1 tons/ha | 17.8 tons/ha | 11.2 tons/ha | 13.6 tons/ha | 11.4 tons/ha | 11.1 tons/ha | 14.0 tons/ha | 15.0 tons/ha | 11.6 tons/ha | 12.2 tons/ha | 16.67 tons/ha | 17.28 tons/ha | 20.11 tons/ha | 19.58 tons/ha |
